Paper PMC7695371, “Mimetics of extra virgin olive oil phenols with anti-cancer stem cell activity” (Aging (Albany NY), 2020)

How the values were obtained:
DNMT3A = target: T1, DNMT3A (Homo sapiens, UniProt Q9Y6K1); test: HotSpot radioisotope filter-binding methyltransferase assay, 10-dose; assay type: biochemical
T1 construct: recombinant, Reaction Biology Corp. HotSpot assay

FRAP1 (mTOR) = FRAP1 (mTOR) (Homo sapiens, UniProt P42345); test: FRET-based Z-LYTE kinase assay, […] concentrations; assay type: biochemical

T1 sequence (Q9Y6K1 whole entry, looked up): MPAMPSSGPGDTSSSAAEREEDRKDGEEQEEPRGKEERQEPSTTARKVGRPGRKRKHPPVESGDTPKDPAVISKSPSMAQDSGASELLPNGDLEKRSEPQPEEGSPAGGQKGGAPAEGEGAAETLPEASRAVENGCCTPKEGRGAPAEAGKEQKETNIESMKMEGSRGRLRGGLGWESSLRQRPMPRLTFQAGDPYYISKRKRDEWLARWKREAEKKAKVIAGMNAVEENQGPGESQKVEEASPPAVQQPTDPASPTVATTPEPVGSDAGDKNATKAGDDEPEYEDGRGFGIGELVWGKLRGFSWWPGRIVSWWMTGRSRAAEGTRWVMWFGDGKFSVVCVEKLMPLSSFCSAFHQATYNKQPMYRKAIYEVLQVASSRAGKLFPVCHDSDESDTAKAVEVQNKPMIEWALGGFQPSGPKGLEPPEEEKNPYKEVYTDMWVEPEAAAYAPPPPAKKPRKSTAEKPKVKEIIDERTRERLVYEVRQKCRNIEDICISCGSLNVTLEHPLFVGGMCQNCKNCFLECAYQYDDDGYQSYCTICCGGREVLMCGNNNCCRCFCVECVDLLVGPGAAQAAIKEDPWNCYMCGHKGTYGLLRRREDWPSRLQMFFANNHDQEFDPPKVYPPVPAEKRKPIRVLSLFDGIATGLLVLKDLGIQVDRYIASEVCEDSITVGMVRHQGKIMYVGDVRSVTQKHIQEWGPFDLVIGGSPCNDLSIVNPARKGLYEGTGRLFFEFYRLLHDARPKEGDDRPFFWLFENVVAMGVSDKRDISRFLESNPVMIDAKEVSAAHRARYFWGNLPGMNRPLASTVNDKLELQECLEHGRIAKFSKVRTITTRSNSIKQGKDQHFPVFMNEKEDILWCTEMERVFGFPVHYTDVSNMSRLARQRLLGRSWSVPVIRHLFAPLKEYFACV

CCCC(=O)OCCc1ccc(O)c(O)c1 [CHEMBL1950046, 3,4-Dihydroxyphenethyl butyrate]
IC50 (DNMT3A): > 150 µM
IC50 (FRAP1 (mTOR)): ~39 µM
